The source of these data is ChEMBL document CHEMBL1201862, “PubChem BioAssay data set” (2004).

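Interpolation was linear, between the two tested concentrations surrounding the appropriate level; five concentrations were tested over 48 hours in 96-well plates. GI50 is the concentration that inhibits growth by half.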 The source made the active and inactive calls. Cut-off read from the data, not from the text of the source: active = GI50 up to about 1.1 µM and inactive = higher. Bounds are passed on as bounds.

Test systems include SF-268; NCI/ADR-RES; KM12; SN12C; RPMI-8226; MCF7; DU-145; CAKI-1; RXF 393; BT-549; T47D; 786-0; OVCAR-4; HL-60; HT-29; SK-OV-3; SW-620; UO-31; MDA-MB-435; U-251.
Holding throughout (assay): inhibition of tumour cell growth, NCI panel, 48 h

For `c1ccc2c(c1)C(=Nc1ccc(N=C3c4ccccc4-c4ccccc43)cc1)c1ccccc1-2`, the GI50 with SF-268, in the experiment with NCI/ADR-RES, with KM12, in the experiment on SN12C, in the experiment with RPMI-8226 and in the experiment with MCF7 was > 100 µM (inactive) throughout. The GI50 in the experiment with DU-145, in the experiment with CAKI-1, in the experiment with RXF 393, in the experiment with BT-549, in the experiment on T47D and with 786-0 was > 100 µM (inactive) in each case. Also, the GI50 with OVCAR-4 is > 100 µM (inactive); in the experiment on HL-60 it was 54.1 µM (inactive); in the experiment with HT-29 it was > 100 µM (inactive); in the experiment on SK-OV-3, > 100 µM (inactive); in the experiment with SW-620, > 100 µM (inactive); in the experiment with UO-31 it was > 100 µM (inactive). Further, the GI50 with MDA-MB-435 and in the experiment on U-251 was > 100 µM (inactive) each time.
For `COC(=O)C(Cc1ccccc1)NC(=O)C(CCC(=O)OCc1ccccc1)NC(=O)OC(C)(C)C` (stereo not given), the GI50 in the experiment with SF-268 is > 100 µM (inactive); with NCI/ADR-RES it was > 100 µM (inactive); in the experiment with KM12, 83.9 µM (inactive); with SN12C it was 82.6 µM (inactive); in the experiment with RPMI-8226, 25 µM (inactive); in the experiment with MCF7, 82.8 µM (inactive). The GI50 with DU-145, in the experiment with CAKI-1, in the experiment on RXF 393, in the experiment on BT-549, with T47D and in the experiment with 786-0 was > 100 µM (inactive) each time. The GI50 with OVCAR-4 is 64 µM (inactive); in the experiment with HL-60, 54.8 µM (inactive); with HT-29, 35.6 µM (inactive); with SK-OV-3, > 100 µM (inactive); in the experiment on SW-620, 63.8 µM (inactive); in the experiment with UO-31, 26.1 µM (inactive). Besides, the GI50 in the experiment on MDA-MB-435 and in the experiment with U-251 was > 100 µM (inactive) in each case.
On to `Brc1ccc2[nH]cc(-c3csc(-c4c[nH]c5ccc(Br)cc45)n3)c2c1`, for which the GI50 in the experiment with SF-268 is 2.05 µM (inactive); in the experiment on NCI/ADR-RES it was 2.21 µM (inactive); in the experiment on KM12, 1.47 µM (inactive); in the experiment with SN12C, 2.83 µM (inactive); in the experiment on RPMI-8226, 1.64 µM (inactive); in the experiment on MCF7 it was 2.7 µM (inactive). The GI50 with DU-145 is 2.52 µM (inactive); in the experiment with CAKI-1, 1.95 µM (inactive); in the experiment on RXF 393, 2.14 µM (inactive); in the experiment with BT-549 it was 5.75 µM (inactive); with T47D, 2.44 µM (inactive); in the experiment on 786-0, 1.8 µM (inactive). Also, the GI50 was 2.26 µM (inactive) in the experiment on OVCAR-4; 3.24 µM (inactive) in the experiment with HL-60; 1.7 µM (inactive) with HT-29; 2.5 µM (inactive) with SK-OV-3; 1.84 µM (inactive) with SW-620; 2.42 µM (inactive) with UO-31. Also, the GI50 was 1.93 µM (inactive) with MDA-MB-435 and 1.82 µM (inactive) with U-251.
`Cc1cccc2c(N)c3cccc(C(=O)NCCCNCCN)c3nc12`: the GI50 is 0.124 µM (active) in the experiment with SF-268; 25.9 µM (inactive) in the experiment with NCI/ADR-RES; 4.8 µM (inactive) in the experiment with KM12; 0.121 µM (active) in the experiment on SN12C; 7.08 µM (inactive) in the experiment with RPMI-8226; 0.679 µM (active) with MCF7. Moreover, the GI50 is 3.59 µM (inactive) in the experiment on DU-145; 7.91 µM (inactive) in the experiment with CAKI-1; 3.4 µM (inactive) in the experiment on RXF 393; 14.6 µM (inactive) in the experiment with BT-549; 7.85 µM (inactive) with T47D; 1.71 µM (inactive) in the experiment on 786-0. In addition, the GI50 with OVCAR-4 is 1.87 µM (inactive); in the experiment with HL-60 it was 12.2 µM (inactive); with HT-29, 3.13 µM (inactive); in the experiment on SK-OV-3, 23.2 µM (inactive); in the experiment on SW-620 it was 8.43 µM (inactive); in the experiment with UO-31 it was 19 µM (inactive). Besides, the GI50 in the experiment with MDA-MB-435 is 15.5 µM (inactive); with U-251 it was 1.3 µM (inactive).
With `CN1CCN(c2c(Cl)cc(Cl)c3[nH]c4ccccc4c(=O)c23)CC1`, the GI50 is 2.86 µM (inactive) in the experiment with SF-268; 7.35 µM (inactive) with NCI/ADR-RES; 6.11 µM (inactive) in the experiment with KM12; 6.12 µM (inactive) in the experiment on SN12C; 3.1 µM (inactive) in the experiment with RPMI-8226; 1.43 µM (inactive) in the experiment on MCF7. The GI50 with DU-145 was 5.4 µM (inactive); in the experiment on CAKI-1, 5.68 µM (inactive); in the experiment on RXF 393, 12.6 µM (inactive); in the experiment on BT-549, 16.1 µM (inactive); in the experiment with T47D it was 9.23 µM (inactive); in the experiment with 786-0, 5.75 µM (inactive). Further, the GI50 in the experiment on OVCAR-4 is 11.7 µM (inactive); in the experiment with HL-60, 2.28 µM (inactive); in the experiment with HT-29, 3.22 µM (inactive); in the experiment on SK-OV-3, 11.1 µM (inactive); in the experiment with SW-620, 3.82 µM (inactive); in the experiment with UO-31 it was 4.29 µM (inactive). Moreover, the results for the GI50 in the experiment with MDA-MB-435 and with U-251 were 5.71 µM (inactive) and 5.82 µM (inactive), respectively.
Regarding `CN(C)/C=C/c1c2c(nc3ccccc13)C(=O)c1ccccc1C2=O`, the GI50 in the experiment with SF-268 is 1.77 µM (inactive); with NCI/ADR-RES, 1.71 µM (inactive); with KM12, 1.34 µM (inactive); in the experiment with SN12C, 1.26 µM (inactive); with RPMI-8226, 0.0989 µM (active); in the experiment on MCF7, 0.7 µM (active). Besides, the GI50 in the experiment with DU-145 was 1.38 µM (inactive); in the experiment on CAKI-1, 2.06 µM (inactive); in the experiment on RXF 393, 3.2 µM (inactive); in the experiment on BT-549 it was 1.77 µM (inactive); in the experiment with T47D, 1.41 µM (inactive); in the experiment with 786-0, 1.92 µM (inactive). Besides, the GI50 in the experiment with OVCAR-4 was 1.58 µM (inactive); in the experiment with HL-60, 0.366 µM (active); in the experiment with HT-29, 1.54 µM (inactive); in the experiment with SK-OV-3, 3.91 µM (inactive); in the experiment with SW-620, 1.62 µM (inactive); in the experiment on UO-31, 1.82 µM (inactive). The GI50 with MDA-MB-435 is 0.357 µM (active); in the experiment on U-251, 0.991 µM (active).
